The record followed here is publication PMC10683482, “Offsetting Low-Affinity Carbohydrate Binding with Covalency to Engage Sugar-Specific Proteins for Tumor-Immune Proximity Induction” (ACS Central Science, 2023).

The target in experiment [1] is anti-23F antibody. Put plainly: Kinetic SDS-PAGE fluorescence labelling kinetics. The class given is binding, human. As to conditions: rhamnose and antirhamnose antibody; approximated from KI. The procedure:
Figure 2 Capacity of Rha-cARMs to specifically covalently engage monoclonal anti-23F and serum anti-rhamnose. A. Chemical structures of the molecules investigated. B. Assessment of covalent vs noncovalent (cARM/ARM) engagement of human serum antirhamnose antibody via an ELISA assay. Each ARM/cARM (2 μM) was incubated with 2% human serum for 48 h and subsequently incubated directly on a streptavidin ELISA plate. Recruitment was evaluated by the addition of anti-IgG or anti-IgM HRP-conjugated secondary antibody with subsequent chromogenic substrate addition. “Comp” represents the addition of competitor rhamnose (500 mM) during 48 h of incubation. […] D. Kinetic SDS-PAGE fluorescence imaging experiment to determine Rha-AI-cARM/anti-23F antibody labeling kinetics using A647-cARM (8). cARM 8 (2–100 μM) was incubated with anti-23F antibody (2 μM) for up to 4 h. A representative fluorescence gel image is included corresponding to compound 8 (50 μM) incubated with either anti-23F antibody or isotype human IgG. Densitometry analysis with ImageJ was used to quantify relative band intensities. […] The error is calculated by alternative fits of initial rates data (all within the linear labeling range). […]
Figure 4 Selectivity and kinetic analysis of optimized Rha-SO2F-cARMs A. Chemical structures of tool compounds used in this study. […] Kinetic fluorescence SDS-PAGE assay similar to that in Figure 2D. […]

In experiment [2] the test system is human IgG (polyclonal antirhamnose antibodies). Nature of the experiment: BLI monitoring of covalent reaction with human IgG (Figure 4B). It counts as binding. Conditions: 10 μM cARM, 230 μM human IgG, up to 25 h. An excerpt:
(§1) The design of rhamnose-SO2F-cARM was again supported by in-silico docking and predicted to preorganize electrophilic SO2F proximal to lysine 104 and serine 53 of the anti-23F heavy chain as well as tyrosine 32 of the light chain (Figure S3). To evaluate the capacity of rhamnose-SO2F-cARMs to specifically label polyclonal antirhamnose antibodies, a tool cARM with a biotin TBD was synthesized (compound 12, Figure 4A, Scheme S5). As an orthogonal kinetics assay to fluorescent gels, tool compound 12 labeling kinetics was first evaluated using an in-house BLI assay and compared to acyl imidazole cARM and ARM analogs. […] Solutions were immediately loaded onto streptavidin probes (Figure 4B, Figure S8). In this assay, rhamnose competition blocks noncovalent antirhamnose recruitment, thus the signal amplitude is directly proportional to the covalently labeled antibody product.
(§2) Figure 4 Selectivity and kinetic analysis of optimized Rha-SO2F-cARMs A. Chemical structures of tool compounds used in this study. B. cARM 12 (10 μM) was incubated with human IgG or BSA (230 μM) then diluted 8× with 100 mM competitor rhamnose spiked kinetics buffer and loaded onto streptavidin probes in BLI. The association plateau was plotted against time to yield the % labeled vs time covalent labeling curve C. Kinetic fluorescence SDS-PAGE assay similar to that in Figure 2D. […]

The test system of experiment [3] is anti-23F antibody. Nature of the experiment: Mass spectrometry study of anti-23F labelling. The class given is binding, human. Conditions: 10 µM cARM, 2.7 µM anti-23F, 45 hours. The procedure: To further confirm selectivity, an MS study was conducted to determine the site of labeling (Figures S10 and S11). […] No other labeling site was detected on the light chain; however, the lability of the SO2F-serine/tyrosine linkage to MS sample preparation protocols likely limited complete labeling site coverage. […] Due to the low labeling efficiency of rhamnose-AI-cARM, no labeling site could be identified. […] Determining the selectivity for antirhamnose antibodies in the presence of off-target cell surface proteins will be the focus of future in vivo studies.
Mass Spectrometry Study – Anti-23F Labelling
Anti-23F (2.7 µM) was incubated with 10 µM of Biotin-AI-cAR M 4 or Biotin-SO2F-cAR M 12, or PBS (antibody only) for 45 hours before MS analysis. Analysis was completed by Bioinformatics Solutions
Inc. Briefly, for intact protein analysis each sample was treated with PNGase F to remove glycans followed by LC-MS analysis. To determine site of labelling, each sample was digested with tryspin, chymostrypsin, and pepsin then analyzed by LC-MS/MS on a timsTOF Pro. Peptide spectra were mapped to a known antibody sequence (anti -23F antibody, Creative Biolabs - PABX-173). No labelling was identified with acyl imidazole containing cARM 4. […]
approxima tely 30% labelling post MS protocol (Figure S11)
Figure S10. Sample analysis of peptide mapping of anti-23F heavy chain. Modification with cARM 12 is […]
(1 picture or pasted object on this page, not shown here)

The target in a further experiment is T1, BSA (Bos taurus, UniProt P02769).
T1 construct: purchased Sigma Aldrich A9576-50ML
Nature of the experiment: BLI monitoring of covalent reaction, BSA control. It counts as binding. As to conditions: 10 μM cARM, 230 μM BSA in lieu of IgG.
Source text: as §1, §2

In general, Kd refers to the equilibrium constant for the complex coming apart. Lower therefore signals a tighter complex.

Turning to `C[C@H](O)[C@H](O)[C@@H](O)[C@@H](O)C=O` [rhamnose, L-rhamnose], at anti-23F antibody [1], the Kd is about 15 µM.
For the compound `C[C@@H]1O[C@@H](OCCNC(=O)C(CCCCNC(=O)OCCOCCOCCOCCOCCOCCOCCOCCNC(=O)CCCC[C@@H]2SC[C@@H]3NC(=O)N[C@@H]32)NC(=O)c2cccc(S(=O)(=O)F)c2)[C@H](O)[C@H](O)[C@H]1O` (some centres unmarked) [compound 12], the “reaction time to plateau of labeled antibody signal” value in experiment [2] is given as at most 10 h. For the same compound, the “site of labelling (LC-MS/MS peptide mapping)” value with anti-23F antibody [3] is “only lysine 104 of antibody heavy chain”. In addition, the “labelling by intact MS” value with anti-23F antibody [3] (post MS protocol) is about 30%. The “loading/labeling with BSA” value at BSA is “minimal loading/labeling”.
